The source of these data is patent US11160770B2, “Compounds, compositions and methods for treating oxidative DNA damage disorders” (Indiana University Research and Technology Corporation, priority 2011, dated 2021).

SMILES strings stand for the structures.

The assay relates to sensory neurons. The experiment in a line: Capsaicin-evoked iCGRP release from sensory neurons after ionizing radiation. It counts as cell-based, rat. The method, then: EXAMPLE. Cell Cultures. Neuronal cultures were prepared from adult male (150-175 g) Sprague-Dawley rats (Harlan, Indianapolis, Ind.) as described in the published literature. Briefly, hippocampal cells were dissociated using papain and mechanical agitation and separated by gradient centrifugation. The pellet of cells from a discontinuous gradient of Optiprep in L-15 media was washed then resuspended in 1 mL of growth media consisting of Neurobasal Medium supplemented with 0.5 mM L-glutamine, 2% B-27 Supplement minus AO, 50 mg/mL Penicillin-Streptomycin, and 5 ng/mL of Basic Fibroblast Growth Factor (BFGF). Approximately 60,000 cells were plated onto poly-D-lysine and laminin coated plates and grown for 6-14 days in 5% CO2 at 37° C. Growth medium was changed every other day. For sensory neuronal culture, cells were dissociated using collagenase and mechanical dissociation. Approximately 30,000 DRG cells were plated into each well of 12 well culture plates or onto Lab-Tek chamber slides all precoated with poly-D-lysine and laminin. […]
For release studies, the sensory neuronal cultures were washed once with HEPES buffer consisting of (in mM) 25 HEPES, 135 NaCl, 3.5 KCl, 2.5 CaCl2, 1 MgCl2, 3.3 D-glucose, and 0.1% bovine serum albumin, pH 7.4 and maintained at 37° C. […] After each incubation, the buffer was removed and the amount of CGRP in each sample was measured using radioimmunoassay as previously described. […] Total content was calculated by adding the total amount released in all incubations to the amount measured in the cells. The release data is calculated as fmol released/well/[…] or as a % of the total peptide content in the cells. […]
EXAMPLE. […] For these studies, the initially determined effects of exposing neuronal cultures to single or multiple doses of 10 Gy of IR on the content and release of iCGRP. 24 h after exposing sensory neurons to either one or two once-daily doses of 10 Gy, there was no significant effect on resting or capsaicin-evoked iCGRP release (as measured in fmol released/well of cells/10 min) or on the total content of CGRP in the cultures. […]

In the case of `CCCCCCCCC/C(=C\C1=C(C)C(=O)C(OC)=C(OC)C1=O)C(=O)O` [Example 28], the “capsaicin-evoked iCGRP release after radiation” value (10 μM or 20 μM E3330, 3 doses of 10 Gy, 30 nM capsaicin, 24 h after last dose) is given as “completely blocked the effects of radiation on peptide release”. Also, under “10 μM or 20 μM E3330, no radiation, 30 nM capsaicin”, the “capsaicin-evoked iCGRP release in control cells” value was “did not alter capsaicin-evoked release in control cells”. Besides, the “evoked release of iCGRP” value (20 μM E3330, APE1 knock-down and 266-177 overexpression, 10 Gy per day for three days) is on record as 5.9±0.5 % of total content.
